This is an account of results in patent US7785611B2, “Parenteral vaccine formulations and uses thereof” (ALK-Abello A/S, priority 2000, dated 2010).

The conditions of series [1]: current use as antacid, laxative, topical or cosmetic; cited from earlier work.
Series [2] concerns TT-specific antibodies of the IgG class. Also noted: species or system BALB/Ca mice. To be noted: mouse, in vivo. The protocol: (§1) Tetanus toxoid (TT) containing 3.0 mg protein/ml, (obtained from Statens Serum Institut, DK-2300 Copenhagen S, Denmark).
(§2) Prepared from Mg(OH)2 gel (Reheis, USA). • Magnesium carbonate hydroxide pentahydrate, (MgCO3)4Mg(OH)25H2O, 0.05 M Mg^2+. […] Preparation of the Vaccine Formulations: […]
(§3) TT was dissolved or diluted to a concentration 10 times that of the concentration in the final vaccine formulation. The adjuvant was dissolved or diluted to a concentration five times that of the concentration in the final vaccine formulation, with regard to the cation. 1 volume TT solution was slowly mixed with 2 volumes adjuvant, and left stirring over night at 4° C. The following day 7 volumes Coca 0.0 buffer (0.25% sodium hydrogen carbonate and 0.5% sodium chloride) was slowly added. The adjuvant free vaccine was prepared as above, with the modification that the adjuvant was substituted with Coca 0.0 buffer. […]
(§4) Blood samples were drawn from the retro orbital vein every 7 days, starting on day 0. Serum was separated from the blood sample, and stored at −20° C., until analysed.
(§5) Serum samples were analysed for the presence of TT-specific immune response by means of a direct enzyme linked immunosorbent assay (ELISA), measuring TT-specific antibodies of the IgG class. […]
(§6) Bound antibodies were detected by serial incubations of the plate with a biotinylated, polyclonal antiserum to mouse IgG (obtained from Jackson Laboratories, Bar Harbour, Me., USA) followed by a streptavidine-horseradish peroxidase conjugate (obtained from DAKO A/S, Glostrup, Denmark). The plates were developed for 20 minutes with 100 μl readymade TMB substrate (Kem-En-Tech, Denmark) per well, and the reaction as stopped with an equal volume of 1M H2SO4.
(§7) The developed colour reaction was measured as absorption at 450 nm. […]
(§8) The strength of the TT-specific antibody response in each serum sample was measured as an arbitrary titre, determined as the serum dilution giving an absorption signal equal to 50% of that obtained with a 3000 fold dilution of the TT-specific monoclonal antibody. […]

For series [3] the following is noted: magnesium hydroxide alone; cited from earlier work.
The test system of series [4] is TT-specific antibodies of the IgG class. Also on record: species or system BALB/Ca mice. The note with it: mouse, in vivo, sc. The protocol:
as §1, §2, §3, §4, §5, §6, §7, §8

As to `[Mg+2].[OH-].[OH-]` [magnesium hydroxide, Magnesium hydroxide], the “Dose (recommended maximum dose)” value in series [1] was 0.5 g per kg bodyweight. Moreover, the “onset of specific immune response compared with Al(OH)3 formulation” value (shortened to “onset … compared with Al(OH)3 formulation”) in series [2] is “earlier onset”. For the same compound, the adsorbent activity entry in series [3] is “low”. The “potency at inducing TT-specific antibodies compared with vaccine formulation containing Al(OH)3” value in series [4] is given as “more potent”.
Consider “Magnesium carbonate hydroxide pentahydrate [magnesium carbonate pentahydrate]”, for which the “Dose (recommended maximum dose)” value in series [1] is reported as 0.5 g per kg bodyweight. In addition, in series [2], the “onset … compared with Al(OH)3 formulation” value is listed as “earlier onset”. In series [4], the “potency at inducing TT-specific antibodies compared with vaccine formulation containing Al(OH)3” value was “more potent”.
Consider Titanium dioxide, for which, in series [1], the “Dose (recommended maximum dose)” value was 1.0 g per kg bodyweight. Besides, the “onset … compared with Al(OH)3 formulation” value in series [2] is given as “earlier onset”. In addition, in series [4], the “potency at inducing TT-specific antibodies compared with vaccine formulation containing Al(OH)3” value is on record as “more potent”.
